Data as given in a compilation of properties of binary mixtures (doi:10.1016/j.molliq.2020.113163).

Assay: xn = mol fraction of the nth substance listed
Details: 101 kPa, x1 = 0.8

C1CCC2=NCCCN2CC1 + O=S(=O)([N-]S(=O)(=O)C(F)(F)F)C(F)(F)F.[Li+]
electrical conductivity (338.15 K): 0.0047 S/m
viscosity (338.15 K): 977 mPa·s
electrical conductivity (358.15 K): 0.0256 S/m
viscosity (358.15 K): 160.9 mPa·s
electrical conductivity (368.15 K): 0.0438 S/m
viscosity (368.15 K): 82.4 mPa·s

C1CN=C2CCCN2C1 + O=S(=O)([N-]S(=O)(=O)C(F)(F)F)C(F)(F)F.[Li+]
electrical conductivity (328.15 K): 0.0252 S/m
viscosity (328.15 K): 566 mPa·s
electrical conductivity (348.15 K): 0.0633 S/m
viscosity (348.15 K): 116.3 mPa·s
electrical conductivity (358.15 K): 0.0966 S/m
viscosity (358.15 K): 63.5 mPa·s
